Assay results taken from patent publication EP0426574A1, “Thiazole derivatives and antiulcer agents containing the same” (TERUMO KABUSHIKI KAISHA, priority 1989, dated 1991).
Counter-ions that a name gives are not always drawn.

Tested on: ethanol hydrochloric acid ulcer
Assay: Inhibitory activity against ethanol hydrochloric acid ulcer
Type: in vivo
Conditions: SD male rats fasted 24 hours; 30mg/kg orally, one hour before 150 mM hydrochloric acid in 60% ethanol; ulcer index = total lesion length, one hour later
Protocol: To SD male rats (weighing 150-250 g) fasted for 24 hours was administered orally a thiazole derivative of the invention. One hour later, a hydrochloric acid solution in ethanol (containing 150 mM hydrochloric acid in 60% ethanol) was orally given in a volume of 0.5 ml/100 g bodyweight.
One hour later, the animals were sacrificed with ether. The stomach was excised and, after formalin treatment, measured for the length (mm) of lesions developed in glandular portions of the stomach. Total length of the lesions per animal was taken as ulcer index.
Percent inhibition of ulceration as referred to in the table is a value obtained by reducing from 1 the ulcer index for the rat with a thiazole derivative of the invention orally given divided by the ulcer index for the orally non-administered rat and multiplying the value by 100. The calculation is conducted by the formula shown below. [formula]

| Compound | Percent inhibition of ulceration (%) |
| --- | --- |
| c1ccc(CNc2nc3cccnc3s2)cc1 [Example 3, 2-benzylamino[5,4-b]pyridothiazole hydrochloride] | 87.2 |
| CN(C)c1ccc(Nc2nc3cccnc3s2)cc1 [Example 4, 2-(4-dimethylaminophenyl)amino[5,4-b]pyridothiazole hydrochloride] | 45.5 |
| c1ccc(Nc2nc3cccnc3s2)cc1 [Example 2, 2-phenylamino[5,4-b]pyridothiazole hydrochloride] | 88.8 |
| CNc1nc2cccnc2s1 [Example 1, 2-methylamino[5,4-b]pyridothiazole hydrochloride] | 100.0 |
| COc1ccc(Nc2nc3cccnc3s2)cc1 [Example 5, 2-(4-methoxyphenyl)-amino[5,4-b]pyridothiazole hydrochloride] | 51.2 |
